This note sets out measurements from ChEMBL document CHEMBL3875218, “Bifunctional conjugates with potent inhibitory activity towards cyclooxygenase and histone deacetylase” (Bioorg Med Chem, 2017).

Molecules are shown by their SMILES. The source made the active and inactive calls. The calls are words filed in the database; no cut-off is given here.

Data set [1] relates to LNCaP. The data set is described as follows: Induction of cell cycle arrest in human LNCAP cells assessed as accumulation at greater G2 phase at 2.5 uM after 24 hrs by propidium iodide staining based FACS analysis (reference value: 0.20%). It is filed as functional. A general note: In flow cytometry, cells or beads pass a laser one at a time.
Data set [2] can be described thus: Cytotoxicity against human MCF7 cells assessed as cell growth inhibition after 72 hrs by MTT assay. It is filed as functional, cell-based. To be noted: MCF7, 72 h. In general terms: Tetrazolium assays rely on reduction of a dye to a coloured formazan, in cell work by metabolically active cells.
A short description of data set [3]: Cytotoxicity against African green monkey Vero cells assessed as cell growth inhibition after 72 hrs by MTT assay. The class given is toxicity, cell-based. The settings on record: African green monkey (Chlorocebus sabaeus).
Data set [4] can be described thus: Cytotoxicity against human DU145 cells assessed as cell growth inhibition after 72 hrs by MTT assay. It is filed as functional, cell-based. To be noted: DU-145, 72 h.
Data set [5] has as its system LNCaP. The data set is described as follows: Induction of cell cycle arrest in human LNCAP cells assessed as accumulation at G2 phase at 2.5 uM after 24 hrs by propidium iodide staining based FACS analysis (reference value: 1.08%). It is filed as functional.
Data set [6] can be described thus: Cytotoxicity against human HeLa cells assessed as cell growth inhibition after 72 hrs by MTT assay.
Data set [7] has as its system BEAS2B. The settings on record: Homo sapiens, at 1 µM.
Description: Inhibition of HDAC in human BEAS2B cells assessed as reduction of NTHi-induced NFkappaB activation at 1 uM preincubated for 1 hr followed by NTHi stimulation for 5 hrs by luciferase reporter gene assay
The nature of data set [8]: Cytotoxicity against human HCT116 cells assessed as cell growth inhibition after 72 hrs by MTT assay. It is filed as functional, cell-based. To be noted: HCT-116, 72 h.
Data set [9] deals with T1, Protein deacetylase HDAC6 (Homo sapiens) (UniProt Q9UBN7).
T1 sequence (whole entry): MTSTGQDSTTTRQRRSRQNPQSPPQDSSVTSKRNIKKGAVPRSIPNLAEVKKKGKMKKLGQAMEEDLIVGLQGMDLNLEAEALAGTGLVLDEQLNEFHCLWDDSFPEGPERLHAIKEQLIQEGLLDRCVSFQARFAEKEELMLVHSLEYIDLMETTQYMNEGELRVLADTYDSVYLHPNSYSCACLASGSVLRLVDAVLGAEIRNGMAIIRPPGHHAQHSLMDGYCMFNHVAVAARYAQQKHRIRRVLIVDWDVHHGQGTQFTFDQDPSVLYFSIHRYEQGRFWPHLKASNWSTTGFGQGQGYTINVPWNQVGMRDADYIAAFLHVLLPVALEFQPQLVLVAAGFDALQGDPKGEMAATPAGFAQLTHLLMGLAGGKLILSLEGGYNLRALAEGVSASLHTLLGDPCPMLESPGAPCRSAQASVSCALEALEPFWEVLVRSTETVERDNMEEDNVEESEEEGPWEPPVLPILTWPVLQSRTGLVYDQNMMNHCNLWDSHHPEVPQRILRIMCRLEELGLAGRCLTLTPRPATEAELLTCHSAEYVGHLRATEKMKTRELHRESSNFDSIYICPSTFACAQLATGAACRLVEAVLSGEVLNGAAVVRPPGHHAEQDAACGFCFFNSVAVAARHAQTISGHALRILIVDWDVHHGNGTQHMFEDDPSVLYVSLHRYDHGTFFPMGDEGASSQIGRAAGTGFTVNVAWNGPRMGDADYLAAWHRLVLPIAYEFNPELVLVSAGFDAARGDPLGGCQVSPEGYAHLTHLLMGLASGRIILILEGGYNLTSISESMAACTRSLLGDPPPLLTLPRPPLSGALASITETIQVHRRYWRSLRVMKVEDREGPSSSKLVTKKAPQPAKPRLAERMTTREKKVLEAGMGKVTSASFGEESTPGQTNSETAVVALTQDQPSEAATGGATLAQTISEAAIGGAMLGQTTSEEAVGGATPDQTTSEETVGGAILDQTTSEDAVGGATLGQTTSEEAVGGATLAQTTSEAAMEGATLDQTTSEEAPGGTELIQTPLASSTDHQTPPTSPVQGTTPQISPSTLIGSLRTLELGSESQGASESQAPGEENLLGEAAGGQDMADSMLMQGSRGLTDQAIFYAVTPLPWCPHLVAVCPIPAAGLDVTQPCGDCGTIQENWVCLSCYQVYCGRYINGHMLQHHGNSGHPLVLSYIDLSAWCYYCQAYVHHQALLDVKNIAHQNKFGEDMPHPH
As to the kind of experiment: Inhibition of HDAC6 in human LNCAP cells assessed as acetylated tubulin accumulation in cytosol at 1.5 uM after 24 hrs by Western blot analysis. It is filed as cell-based.

Data set [10] deals with LNCaP. As to the kind of experiment: Inhibition of HDAC in human LNCAP cells assessed as down regulation of COX2 expression at 1.5 uM after 24 hrs by Western blot analysis. The class given is cell-based. (In general: A western blot detects proteins with antibodies after separation by electrophoresis.)
Data set [11] relates to LNCaP. The data set is described as follows: Induction of cell cycle arrest in human LNCAP cells assessed as accumulation at lesser G1 phase at 2.5 uM after 24 hrs by propidium iodide staining based FACS analysis (reference value: 1.59%). The class given is functional.
Data set [12] has as its target T2, Histone deacetylase 8 (Homo sapiens, UniProt Q9BY41).
T2 sequence (Q9BY41 whole entry): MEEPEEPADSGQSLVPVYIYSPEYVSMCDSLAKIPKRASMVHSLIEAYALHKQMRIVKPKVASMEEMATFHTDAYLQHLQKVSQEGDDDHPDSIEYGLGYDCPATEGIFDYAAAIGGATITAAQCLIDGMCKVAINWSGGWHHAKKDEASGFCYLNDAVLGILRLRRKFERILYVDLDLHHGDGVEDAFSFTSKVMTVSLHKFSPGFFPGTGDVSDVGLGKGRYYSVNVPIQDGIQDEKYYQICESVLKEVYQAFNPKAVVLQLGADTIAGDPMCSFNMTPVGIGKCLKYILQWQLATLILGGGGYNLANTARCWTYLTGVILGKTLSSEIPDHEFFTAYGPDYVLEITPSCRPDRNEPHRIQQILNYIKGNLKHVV
The data set is described as follows: Inhibition of HDAC8 (unknown origin) after 2.5 hrs by SAMDI mass spectroscopic analysis.

Data set [13] deals with LNCaP. As to the kind of experiment: Induction of cell cycle arrest in human LNCAP cells assessed as accumulation at G1 phase at 2.5 uM after 24 hrs by propidium iodide staining based FACS analysis (reference value: 69.5%). The class given is functional.
Data set [14] has as its target T3, Protein deacetylase HDAC6 (Homo sapiens, UniProt Q9UBN7).
T3 sequence (Q9UBN7 whole entry): T1 sequence (whole entry)
As to the kind of experiment: Inhibition of HDAC6 (unknown origin) after 20 hrs by SAMDI mass spectroscopic analysis.

In data set [15] the target is Histone deacetylase 1 (Homo sapiens, UniProt Q13547). As to the kind of experiment: Inhibition of HDAC1 (unknown origin) after 24 hrs by SAMDI mass spectroscopic analysis.
Data set [16] deals with LNCaP. As to the kind of experiment: Induction of cell cycle arrest in human LNCAP cells assessed as accumulation at S phase at 2.5 uM after 24 hrs by propidium iodide staining based FACS analysis (reference value: […]). The class given is functional.
Data set [17] has as its system LNCaP. The data set is described as follows: Inhibition of class 1 HDAC in human LNCAP cells assessed as acetylated histone H4 accumulation at 1.5 uM after 24 hrs by Western blot analysis. The class given is cell-based.
Data set [18] can be described thus: Cytotoxicity against human LNCAP cells assessed as cell growth inhibition after 72 hrs by MTT assay. It is filed as functional, cell-based.
Data set [19] deals with Histone deacetylase 3 (Homo sapiens, UniProt O15379). As to the kind of experiment: Inhibition of HDAC3 (unknown origin) after 5 hrs by SAMDI mass spectroscopic analysis.
Data set [20] has as its target T4, Prostaglandin G/H synthase 2 (Homo sapiens) (UniProt P35354).
T4 sequence (whole entry): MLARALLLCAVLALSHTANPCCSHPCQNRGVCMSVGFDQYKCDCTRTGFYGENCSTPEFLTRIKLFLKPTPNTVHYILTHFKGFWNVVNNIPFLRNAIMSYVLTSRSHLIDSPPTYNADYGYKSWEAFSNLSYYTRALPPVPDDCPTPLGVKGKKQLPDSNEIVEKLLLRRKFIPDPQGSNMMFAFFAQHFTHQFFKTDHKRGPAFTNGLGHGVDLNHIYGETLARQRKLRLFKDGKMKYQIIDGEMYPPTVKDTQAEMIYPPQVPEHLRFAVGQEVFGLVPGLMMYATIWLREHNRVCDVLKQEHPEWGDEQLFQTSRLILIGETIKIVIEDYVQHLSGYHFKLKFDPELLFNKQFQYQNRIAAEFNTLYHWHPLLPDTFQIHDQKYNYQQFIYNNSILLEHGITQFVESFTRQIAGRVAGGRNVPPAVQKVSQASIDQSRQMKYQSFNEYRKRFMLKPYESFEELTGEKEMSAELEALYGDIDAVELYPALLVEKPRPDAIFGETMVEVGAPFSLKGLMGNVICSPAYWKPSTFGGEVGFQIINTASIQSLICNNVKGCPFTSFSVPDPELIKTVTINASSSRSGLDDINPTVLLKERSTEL
As to the kind of experiment: Inhibition of recombinant human COX2 at 10 uM using arachidonic acid as substrate preincubated for 15 mins followed by substrate addition for 2 mins by Cayman based fluorescence assay.

Data set [21] has as its target Histone deacetylase 2 (Homo sapiens, UniProt Q92769). As to the kind of experiment: Inhibition of HDAC2 (unknown origin) after 24 hrs by SAMDI mass spectroscopic analysis.
A short description of data set [22]: Cytotoxicity against human A549 cells assessed as cell growth inhibition after 72 hrs by MTT assay. It is filed as functional, cell-based. The settings on record: A549, 72 h.
The test system of data set [23] is LNCaP. As to the kind of experiment: Induction of cell cycle arrest in human LNCAP cells assessed as accumulation at S phase at 40 uM after 24 hrs by propidium iodide staining based FACS analysis (reference value: […]). It is filed as functional.
Data set [24] has as its system LNCaP. As to the kind of experiment: Induction of cell cycle arrest in human LNCAP cells assessed as accumulation at G2 phase at 40 uM after 24 hrs by propidium iodide staining based FACS analysis (reference value: 1.08%). The class given is functional.
Data set [25] has as its system LNCaP. As to the kind of experiment: Induction of cell cycle arrest in human LNCAP cells assessed as accumulation at lesser G1 phase at 40 uM after 24 hrs by propidium iodide staining based FACS analysis (reference value: 1.59%). It is filed as functional.
Data set [26] relates to LNCaP. As to the kind of experiment: Induction of cell cycle arrest in human LNCAP cells assessed as accumulation at G1 phase at 40 uM after 24 hrs by propidium iodide staining based FACS analysis (reference value: 69.5%). It is filed as functional.
Data set [27] concerns LNCaP. As to the kind of experiment: Induction of cell cycle arrest in human LNCAP cells assessed as accumulation at greater G2 phase at 40 uM after 24 hrs by propidium iodide staining based FACS analysis (reference value: 0.20%). The class given is functional.

Sequence of Histone deacetylase 3 (O15379 whole entry): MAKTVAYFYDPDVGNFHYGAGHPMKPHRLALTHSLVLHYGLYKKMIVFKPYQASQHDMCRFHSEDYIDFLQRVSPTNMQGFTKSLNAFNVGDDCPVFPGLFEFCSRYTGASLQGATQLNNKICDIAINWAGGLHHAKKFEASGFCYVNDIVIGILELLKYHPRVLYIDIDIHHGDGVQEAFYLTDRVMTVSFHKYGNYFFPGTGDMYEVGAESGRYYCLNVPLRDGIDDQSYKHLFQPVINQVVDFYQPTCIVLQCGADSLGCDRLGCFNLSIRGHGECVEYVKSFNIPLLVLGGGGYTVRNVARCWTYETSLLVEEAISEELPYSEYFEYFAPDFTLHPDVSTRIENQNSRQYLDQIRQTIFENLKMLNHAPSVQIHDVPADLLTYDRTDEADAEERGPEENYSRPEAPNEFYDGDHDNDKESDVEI
Sequence of Histone deacetylase 2 (Q92769 whole entry): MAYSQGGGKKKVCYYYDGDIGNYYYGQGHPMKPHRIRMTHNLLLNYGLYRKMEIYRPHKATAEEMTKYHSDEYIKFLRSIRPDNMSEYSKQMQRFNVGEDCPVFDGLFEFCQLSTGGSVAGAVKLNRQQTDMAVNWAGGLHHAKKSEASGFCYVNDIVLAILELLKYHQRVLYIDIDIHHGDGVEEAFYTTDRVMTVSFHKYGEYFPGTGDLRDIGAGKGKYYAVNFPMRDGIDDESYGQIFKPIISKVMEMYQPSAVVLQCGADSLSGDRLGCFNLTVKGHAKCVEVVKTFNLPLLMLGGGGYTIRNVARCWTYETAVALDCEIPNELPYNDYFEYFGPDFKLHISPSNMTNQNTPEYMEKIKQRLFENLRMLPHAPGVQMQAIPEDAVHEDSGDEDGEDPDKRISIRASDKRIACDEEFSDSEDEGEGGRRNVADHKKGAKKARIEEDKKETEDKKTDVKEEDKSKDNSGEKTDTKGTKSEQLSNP
Sequence of Histone deacetylase 1 (Q13547 whole entry): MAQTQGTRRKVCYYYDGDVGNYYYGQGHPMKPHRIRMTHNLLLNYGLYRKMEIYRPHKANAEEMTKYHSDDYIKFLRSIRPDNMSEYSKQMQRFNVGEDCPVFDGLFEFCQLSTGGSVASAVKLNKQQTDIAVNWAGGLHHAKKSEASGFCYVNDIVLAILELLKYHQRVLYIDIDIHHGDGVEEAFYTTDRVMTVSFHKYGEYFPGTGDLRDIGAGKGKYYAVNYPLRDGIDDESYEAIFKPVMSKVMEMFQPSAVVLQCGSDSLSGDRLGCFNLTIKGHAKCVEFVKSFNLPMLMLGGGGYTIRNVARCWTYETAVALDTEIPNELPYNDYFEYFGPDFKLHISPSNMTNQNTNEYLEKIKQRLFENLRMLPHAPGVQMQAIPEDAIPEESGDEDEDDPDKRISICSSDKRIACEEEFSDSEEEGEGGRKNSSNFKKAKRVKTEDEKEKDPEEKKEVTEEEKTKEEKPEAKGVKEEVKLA

`COC(=O)Cc1c(C)n(Cc2ccc(-c3cn(CCCCCCC(=O)NO)nn3)cc2)c2ccc(OC)cc12`: the Activity in data set [1] came out at 2.06%; in [5], 1.87%; in data set [11], 0.053%; in [13], 46.7%; in data set [16], 47.1%. Further, the IC50 worked out at 9610 nM in data set [2]; 8170 nM in data set [4]; 4020 nM in [6]; 1670 nM in data set [8]; 135 nM in [12]; 10 nM in data set [14]. Further, the IC50 in data set [15] was 89 nM; in data set [18], 1350 nM; in [19] it was 35 nM; in data set [21], 407 nM; in data set [22], 8220 nM. In addition, the IC50 at 72 h in data set [3] stood at 5820 nM. Moreover, the inhibition result in data set [7], in data set [9], in data set [10] and in data set [17] was “Active” each time. Also, in data set [20], the inhibition was 50.8%.

For the compound `Cc1ccc(-c2cc(C(F)(F)F)nn2-c2ccc(S(N)(=O)=O)cc2)cc1` [CELECOXIB], the Activity is on record as 28.4% in [23]; 0.85% in [24]; 0.59% in data set [25]; 69.2% in data set [26]; 0.35% in data set [27].

In general, IC50 refers to the point on the concentration scale where inhibition reaches its midpoint. As a reminder, the inhibition is the share of the control response that was lost under treatment.
